Laboratory results published in patent US20110039819A1, “SUBSTITUTED PHENOXYBENZAMIDES” (priority 2008, published 2011).
pIC50: −log10 of the molar value. Like-named read-outs stand apart in the source and are kept apart here.

Legend:
MEK1 = target: T1, MEK1 (Homo sapiens, UniProt Q02750); assay: MEK1 activation kinase assay (Assay 2, HTRF; Cot1 phosphorylates GST-MEK1); format: biochemical
T1 construct: purchased Millipore 14-420 (GST-MEK1); 14-703 (Cot1); host or cells: Cot1: insect cells (SF21)
Description: MEK1 Activation Kinase Assay
The kinase Cot1 activates MEK1 by phosphorylating its activation loop. The inhibitory activity of compounds of the present invention on this activation of MEK1 was quantified employing the HTRF assay described in the following paragraphs.
As substrate for the kinase reaction the unactive C-terminally His6-tagged GST-MEK1 fusion protein (Millipore cat. no 14-420) was used.
Then the kinase reaction was started by the addition of 2 μl of a solution of Cot1 in assay buffer and the resulting mixture was incubated for a reaction time of 20 min at 22° C. The concentration of Cot1 in the assay was adjusted depending of the activity of the enzyme lot and was chosen appropriate to have the assay in the linear range, typical enzyme concentrations were in the range of about 2 ng/μl (final conc. in the 5 μl assay volume).
The resulting mixture was incubated 2 h at 22° C. to allow the binding of the phosphorylated GST-MEK1 to the anti-GST-XL665 and the Eu-cryptate labelled anti-phospho-MEK 1/2 antibody. Subsequently the amount of Ser217/Ser221-phosphorylated substrate was evaluated by measurement of the resonance energy transfer from the Eu-Cryptate-labelled anti-phospho-MEK antibody to the anti-GST-XL665.

colon cancer = details: oral treatment, mouse models, reference [18]; cited from earlier work
MEK1/2 = details: second-generation MEK1/2 inhibitor, reference [17]; cited from earlier work
[1] = mean values from 2 or more measurements, read-out: Assay 2 IC50 values (nanomolar) (MEK1 activation kinase assay) (values are mean values from 2 or more measurements)
[2] = representative example compounds, read-out: IC50 in MEK1 activation kinase assay

T1 sequence (Q02750 whole entry): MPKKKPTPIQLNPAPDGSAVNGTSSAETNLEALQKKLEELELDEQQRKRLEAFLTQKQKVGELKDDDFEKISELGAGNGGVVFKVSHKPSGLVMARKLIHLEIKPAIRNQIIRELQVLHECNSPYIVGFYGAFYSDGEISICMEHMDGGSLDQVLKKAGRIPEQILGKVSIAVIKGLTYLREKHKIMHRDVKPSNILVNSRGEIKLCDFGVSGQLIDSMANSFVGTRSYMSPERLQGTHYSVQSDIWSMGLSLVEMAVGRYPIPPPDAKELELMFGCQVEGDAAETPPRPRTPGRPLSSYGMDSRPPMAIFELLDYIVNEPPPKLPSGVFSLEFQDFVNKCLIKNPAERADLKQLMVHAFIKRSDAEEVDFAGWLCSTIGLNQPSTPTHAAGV

Row | SMILES | pIC50 (MEK1; [1]) | pIC50 (MEK1; [2]) | inhibition of colon cancer growth (colon cancer) | IC50 (MEK1/2)
1 | C#Cc1ccc(Nc2cc(F)cc(Oc3cccc(NS(=O)(=O)NCCC)c3)c2C(N)=O)c(F)c1 [Example 7.3, 2-[3-[[(propylamino)sulfonyl]amino]phenoxy]-4-fluoro-6-[(4-ethynyl-2-fluorophenyl)amino]-benzamide] | 7.33 | – | – | –
2 | C#Cc1ccc(Nc2c(F)c(F)c(F)c(Oc3cccc(NS(=O)(=O)N(C)C)c3)c2C(N)=O)c(F)c1 [Example 7.4, 2-{3-[(dimethylsulfamoyl)amino]phenoxy}-6-[(4-ethynyl-2-fluorophenyl)amino]-3,4,5-trifluorobenzamide] | 7.91 | – | – | –
3 | CN(C)S(=O)(=O)N(C)c1cccc(Oc2cc(F)cc(Nc3ccc(I)cc3F)c2C(N)=O)c1 [Example 10.6, 6-[3-[[(dimethylamino)sulfonyl](methyl)-amino]phenoxy]-4-fluoro-2-[(2-fluoro-4-iodophenyl)amino]-benzamide] | 7.31 | > 6.00 | – | –
4 | NC(=O)c1c(Nc2ccc(I)cc2F)cc(F)cc1Oc1cccc(C(=O)O)c1 [Example 10.7, 3-[2-Carbamoyl-5-fluoro-3-(2-fluoro-4-iodo-phenylamino)-phenoxy]-benzoic acid] | 7.48 | > 6.00 | – | –
5 | CS(=O)(=O)c1cccc(Oc2cc(F)cc(Nc3ccc(I)cc3F)c2C(N)=O)c1 [Example 10.8, 4-Fluoro-2-(2-fluoro-4-iodo-phenylamino)-6-(3-methanesulfonyl-phenoxy)-benzamide] | 7.53 | > 6.00 | – | –
6 | O=C(NOCC1CC1)c1ccc(F)c(F)c1Nc1ccc(I)cc1Cl [PD184352] | – | – | inhibit colon cancer growth in vivo | low nanomolar range
